Active and inactive are the calls of the source.
Tests used:
[1] = biological target: Peroxisome proliferator-activated receptor gamma/Nuclear receptor coactivator 1 (Homo sapiens, UniProt P37231); assay: (§1) TR-FRET dose response biochemical High Throughput Screening assay for agonists of the steroid receptor coactivator 1 (SRC-1) recruitment by the peroxisome proliferator-activated receptor gamma (PPAR gamma): non-selective agonists. [Related pubchem assays (depositor defined):AID1300, AID1808, AID504735, AID631]; assay type: protein assay
[2] = biological target: Peroxisome proliferator-activated receptor gamma/Nuclear receptor coactivator 3 (Homo sapiens, UniProt P37231); assay: as §1, with “3 (SRC-3)” for “1 (SRC-1)”, “assays: 1301 (Confirmation screen.), 1048 (Primary screen.)]” for “assays (depositor defined):AID1300, AID1808, AID504735, AID631]”; assay type: functional
[3] = biological target: Peroxisome proliferator-activated receptor gamma/Nuclear receptor coactivator 2 (Homo sapiens, UniProt P37231); assay: TR-FRET dose response biochemical High Throughput Screening assay for agonists of the steroid receptor coactivator 2 (SRC-2) recruitment by the peroxisome proliferator-activated receptor gamma (PPAR gamma): non-selective agonists. [Related pubchem assays: 1297, 1032 ]; assay type: functional
[4] = biological target: Cytochrome P450 3A4 (Homo sapiens, UniProt P08684);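 also: CYP3A4 tested as one member of a cytochrome P450 panel screen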
[5] = biological target: Melanocortin receptor 4 (Homo sapiens, UniProt P32245); assay: inhibitors of MC4R cAMP signaling – cell-based, TR-FRET, biased antagonists, dose response (AID 602298); assay type: functional;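 also: antagonist potency against agonist-stimulated cAMP production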
[6] = cAMP pathway inhibition in counterscreen cell line – TR-FRET cAMP detection, counter-screen for MC4R biased antagonist project, dose response (AID 602305); assay type: functional, cell-based;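 also: U2OS cells stimulated with forskolin near its EC80 as the cAMP inducer; potency is for inhibition of forskolin-stimulated cAMP signaling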
[7] = test system: P388/ADR; assay: cells; assay type: functional; conditions: Mus musculus
[8] = test system: SN12K1; assay: cells; assay type: functional; conditions: Homo sapiens
[9] = test system: P388; assay: cells; assay type: functional; conditions: Mus musculus
[10] = test system: Vero; assay: cells; assay type: functional, cell-based; conditions: Chlorocebus sabaeus
[11] = test system: Vero; assay: cells; assay type: functional; conditions: Chlorocebus sabaeus
[12] = biological target: T1, Endoribonuclease toxin MazF (Escherichia coli K-12, UniProt P0AE70); assay: activation of MazEF endoribonuclease cleavage – biochemical, fluorescence, single-stranded RNA substrate, uHTS hits, dose response (AID 588481); assay type: functional
T1 sequence (P0AE70 whole entry): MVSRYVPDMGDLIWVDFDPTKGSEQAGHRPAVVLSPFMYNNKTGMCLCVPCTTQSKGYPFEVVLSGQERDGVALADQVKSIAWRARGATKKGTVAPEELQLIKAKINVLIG

[13] = biological target: T1, Endoribonuclease toxin MazF; assay: substrate-only fluorescence increase artefacts – biochemical, single-stranded RNase substrate, counter-screen for MazEF activator project, dose response (AID 588502); assay type: functional

Sequence of Melanocortin receptor 4 (P32245 whole entry): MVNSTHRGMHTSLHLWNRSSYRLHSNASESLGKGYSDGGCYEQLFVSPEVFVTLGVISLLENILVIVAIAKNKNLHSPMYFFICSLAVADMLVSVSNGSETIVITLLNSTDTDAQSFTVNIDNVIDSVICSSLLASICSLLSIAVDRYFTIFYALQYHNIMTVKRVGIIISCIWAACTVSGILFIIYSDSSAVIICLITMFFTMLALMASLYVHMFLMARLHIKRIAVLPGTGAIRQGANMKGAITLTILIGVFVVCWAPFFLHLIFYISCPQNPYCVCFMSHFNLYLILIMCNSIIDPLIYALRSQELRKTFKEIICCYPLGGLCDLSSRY
Sequence of Peroxisome proliferator-activated receptor gamma/Nuclear receptor coactivator 3 (P37231 whole entry): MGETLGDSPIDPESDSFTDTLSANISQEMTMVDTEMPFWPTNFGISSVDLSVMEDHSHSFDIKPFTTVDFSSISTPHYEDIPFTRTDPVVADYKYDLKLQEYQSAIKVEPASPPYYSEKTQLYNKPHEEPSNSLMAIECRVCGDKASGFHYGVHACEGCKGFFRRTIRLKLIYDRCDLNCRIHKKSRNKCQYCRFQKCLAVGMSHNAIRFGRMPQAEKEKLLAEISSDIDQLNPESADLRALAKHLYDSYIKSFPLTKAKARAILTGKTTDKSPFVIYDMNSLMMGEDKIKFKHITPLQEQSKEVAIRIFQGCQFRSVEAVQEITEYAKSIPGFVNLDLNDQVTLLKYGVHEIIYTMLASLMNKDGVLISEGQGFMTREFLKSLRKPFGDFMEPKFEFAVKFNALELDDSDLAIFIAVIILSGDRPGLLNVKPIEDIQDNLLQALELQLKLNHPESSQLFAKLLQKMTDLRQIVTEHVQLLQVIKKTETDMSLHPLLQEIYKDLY
Sequence of Peroxisome proliferator-activated receptor gamma/Nuclear receptor coactivator 3 (Q9Y6Q9 whole entry, further chain): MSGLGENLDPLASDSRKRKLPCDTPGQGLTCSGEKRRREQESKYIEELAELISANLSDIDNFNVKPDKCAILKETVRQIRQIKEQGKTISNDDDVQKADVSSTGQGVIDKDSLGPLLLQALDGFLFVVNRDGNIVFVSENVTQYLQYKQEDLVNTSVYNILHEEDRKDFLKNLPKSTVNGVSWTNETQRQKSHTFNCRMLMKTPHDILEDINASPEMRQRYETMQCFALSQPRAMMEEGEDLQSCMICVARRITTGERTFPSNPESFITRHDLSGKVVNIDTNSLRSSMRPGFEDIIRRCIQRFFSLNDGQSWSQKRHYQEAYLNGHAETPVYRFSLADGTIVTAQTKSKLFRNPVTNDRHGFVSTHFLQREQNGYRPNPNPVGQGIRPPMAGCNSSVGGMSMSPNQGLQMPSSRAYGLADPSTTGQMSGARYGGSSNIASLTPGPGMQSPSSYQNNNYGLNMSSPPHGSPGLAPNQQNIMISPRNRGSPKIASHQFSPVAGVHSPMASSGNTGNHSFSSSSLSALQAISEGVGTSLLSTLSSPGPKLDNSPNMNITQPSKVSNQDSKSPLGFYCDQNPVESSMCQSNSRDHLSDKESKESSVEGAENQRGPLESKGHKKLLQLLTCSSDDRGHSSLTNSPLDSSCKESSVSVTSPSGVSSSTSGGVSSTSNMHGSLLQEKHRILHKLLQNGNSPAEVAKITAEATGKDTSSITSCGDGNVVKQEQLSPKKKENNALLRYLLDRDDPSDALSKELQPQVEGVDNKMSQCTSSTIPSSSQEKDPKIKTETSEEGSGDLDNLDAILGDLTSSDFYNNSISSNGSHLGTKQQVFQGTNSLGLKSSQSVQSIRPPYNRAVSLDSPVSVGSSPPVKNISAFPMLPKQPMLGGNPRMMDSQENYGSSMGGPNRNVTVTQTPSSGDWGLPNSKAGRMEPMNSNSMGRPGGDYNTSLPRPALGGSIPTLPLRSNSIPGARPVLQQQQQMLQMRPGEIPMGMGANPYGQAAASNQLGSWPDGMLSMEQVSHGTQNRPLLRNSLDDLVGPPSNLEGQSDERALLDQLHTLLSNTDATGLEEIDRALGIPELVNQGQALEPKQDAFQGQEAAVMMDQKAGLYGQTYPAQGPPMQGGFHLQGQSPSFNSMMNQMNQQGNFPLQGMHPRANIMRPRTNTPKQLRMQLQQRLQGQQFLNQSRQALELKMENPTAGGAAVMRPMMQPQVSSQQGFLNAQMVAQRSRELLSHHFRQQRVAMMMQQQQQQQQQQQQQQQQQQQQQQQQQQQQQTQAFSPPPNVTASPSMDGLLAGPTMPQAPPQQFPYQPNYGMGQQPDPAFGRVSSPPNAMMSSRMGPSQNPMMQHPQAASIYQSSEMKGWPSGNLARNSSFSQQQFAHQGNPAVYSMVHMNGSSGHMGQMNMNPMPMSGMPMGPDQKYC
Sequence of Peroxisome proliferator-activated receptor gamma/Nuclear receptor coactivator 2 (P37231 whole entry): as the sequence (P37231 whole entry) above
Sequence of Peroxisome proliferator-activated receptor gamma/Nuclear receptor coactivator 2 (Q15596 whole entry, further chain): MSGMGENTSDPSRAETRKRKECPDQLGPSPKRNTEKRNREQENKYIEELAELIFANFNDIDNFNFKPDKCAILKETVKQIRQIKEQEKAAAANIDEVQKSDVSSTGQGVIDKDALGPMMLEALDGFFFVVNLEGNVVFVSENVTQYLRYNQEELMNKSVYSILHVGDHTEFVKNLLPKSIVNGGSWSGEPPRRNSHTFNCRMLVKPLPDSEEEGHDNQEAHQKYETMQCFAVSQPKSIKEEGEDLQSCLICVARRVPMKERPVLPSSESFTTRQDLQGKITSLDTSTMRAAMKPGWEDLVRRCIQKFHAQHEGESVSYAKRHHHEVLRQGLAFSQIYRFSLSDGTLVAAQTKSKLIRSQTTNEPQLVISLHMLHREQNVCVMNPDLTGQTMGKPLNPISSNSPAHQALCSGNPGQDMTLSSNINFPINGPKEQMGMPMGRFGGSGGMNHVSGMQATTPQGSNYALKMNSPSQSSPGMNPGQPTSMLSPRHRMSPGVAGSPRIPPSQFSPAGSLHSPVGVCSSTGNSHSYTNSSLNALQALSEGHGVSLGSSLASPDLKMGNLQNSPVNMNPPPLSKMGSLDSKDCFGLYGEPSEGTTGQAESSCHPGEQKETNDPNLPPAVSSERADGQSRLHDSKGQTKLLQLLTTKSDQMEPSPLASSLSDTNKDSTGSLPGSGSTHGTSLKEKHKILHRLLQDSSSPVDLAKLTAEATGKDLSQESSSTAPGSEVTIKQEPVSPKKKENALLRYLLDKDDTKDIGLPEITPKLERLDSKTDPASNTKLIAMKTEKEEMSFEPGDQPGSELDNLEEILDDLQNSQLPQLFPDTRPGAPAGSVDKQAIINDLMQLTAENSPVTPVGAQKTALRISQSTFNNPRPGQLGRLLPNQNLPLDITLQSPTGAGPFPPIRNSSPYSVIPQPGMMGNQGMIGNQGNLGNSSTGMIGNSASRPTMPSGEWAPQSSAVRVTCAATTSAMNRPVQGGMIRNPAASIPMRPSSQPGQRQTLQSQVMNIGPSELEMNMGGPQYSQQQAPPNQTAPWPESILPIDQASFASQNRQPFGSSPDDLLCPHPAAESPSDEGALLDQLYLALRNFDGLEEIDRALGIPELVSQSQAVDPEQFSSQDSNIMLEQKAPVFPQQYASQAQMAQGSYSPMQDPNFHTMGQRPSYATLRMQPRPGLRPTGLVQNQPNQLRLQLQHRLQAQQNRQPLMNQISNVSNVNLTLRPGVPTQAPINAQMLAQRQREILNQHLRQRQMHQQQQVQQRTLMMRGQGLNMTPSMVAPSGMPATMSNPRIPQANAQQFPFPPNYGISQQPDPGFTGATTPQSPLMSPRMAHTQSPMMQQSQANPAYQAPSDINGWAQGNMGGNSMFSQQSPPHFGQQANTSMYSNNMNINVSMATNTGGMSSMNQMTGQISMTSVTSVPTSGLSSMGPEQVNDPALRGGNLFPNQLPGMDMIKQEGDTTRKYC
Sequence of Cytochrome P450 3A4 (P08684 whole entry): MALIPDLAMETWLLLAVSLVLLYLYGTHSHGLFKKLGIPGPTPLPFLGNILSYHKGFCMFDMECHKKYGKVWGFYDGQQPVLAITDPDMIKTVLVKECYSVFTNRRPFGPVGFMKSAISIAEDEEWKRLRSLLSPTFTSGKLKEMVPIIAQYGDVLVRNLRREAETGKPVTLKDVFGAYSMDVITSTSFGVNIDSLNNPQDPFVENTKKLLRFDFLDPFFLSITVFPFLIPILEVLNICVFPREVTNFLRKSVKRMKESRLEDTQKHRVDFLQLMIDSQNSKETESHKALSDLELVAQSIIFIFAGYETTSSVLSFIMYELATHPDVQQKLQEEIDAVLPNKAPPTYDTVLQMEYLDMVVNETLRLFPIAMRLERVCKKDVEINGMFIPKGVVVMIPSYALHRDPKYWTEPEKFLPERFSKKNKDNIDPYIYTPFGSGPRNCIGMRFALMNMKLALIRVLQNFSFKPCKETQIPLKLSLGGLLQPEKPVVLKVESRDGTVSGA

Row | SMILES | IC50 [5] | IC50 [6] | GI50 [7] | GI50 [8] | GI50 [9] | also measured
1 | O=c1c(Cl)c(N2CCN(S(=O)(=O)c3ccc(F)cc3)CC2)cnn1-c1cccc(Cl)c1 | – | – | – | – | – | EC50 [1]: 9.63 µM (active); EC50 [2]: 18.7 µM (not active); EC50 [3]: 9.06 µM (active); AC50 [4]: 20 µM (inconclusive)
2 | O=C(Nc1nc2cc(Cl)ccc2s1)C1CCCN(S(=O)(=O)c2cccc3cccnc23)C1 (stereo not drawn) | > 64.6 µM (inactive) | > 64.6 µM (inactive) | – | – | – | –
3 | C=C1C(=O)O[C@@H]2[C@H](O)[C@@H](C)[C@@H]3C=CC(=O)[C@@]3(C)[C@H](OC(=O)C=C(C)C)[C@H]12 | – | – | 0.141 µM (active) | 0.681 µM (active) | 0.194 µM (active) | –
4 | CCN(c1ccc(OCC(=O)OCC(=O)c2c(N)n(C)c(=O)n(C)c2=O)cc1)S(=O)(=O)c1ccccc1 | > 7.18 µM (active) | > 64.6 µM (inactive) | – | – | – | –
5 | c1ccc(COc2ccc(-c3cc4nc(NCCN5CCOCC5)ccn4n3)cc2)cc1 | 20 µM (inactive) | > 64.6 µM (inactive) | – | – | – | –
6 | Cc1ccc(N(Cc2ccccc2)C(=O)CSC(C)C(=O)Nc2cc(C)on2)cc1 (stereo not drawn) | – | – | – | – | – | IC50 [10]: 15.6 µM (active); CC50 [11]: 23.3 µM (active)
7 | Cn1ncc(/N=C/c2c(O)ccc3ccccc23)c1C(=O)Nc1cccc(Cl)c1 | – | – | – | – | – | EC50 [12]: 26.2 µM (inactive); EC50 [13]: 94.5 µM (inactive)
8 | Nc1nc(=O)c2c([nH]1)NCC(CNc1ccc(C(=O)N[C@@H](CCC(=O)O)C(=O)O)cc1)N2C=O (stereo partly drawn) [LEUCOVORIN CALCIUM] | – | – | > 124 µM (inactive) | > 125 µM (inactive) | > 125 µM (inactive) | –
9 | CCCCCCCCCCCCCCCCCCOP(=O)([O-])OCC[N+](C)(C)C [OCTADECYLPHOSPHONOCHOLINE] | – | – | 11.1 µM (inactive) | 13.7 µM (inactive) | 3.78 µM (inactive) | –

Reference: ChEMBL document CHEMBL1201862, “PubChem BioAssay data set” (2004)
